Data: the supplement of paper PMC10307832

Tests used:
Test in all cases: relative viability (nuclei count vs DMSO), 5 days (fraction); higher = more cells survive
Dactolisib + Palbociclib = compound: Cn1c(=O)n(-c2ccc(C(C)(C)C#N)cc2)c2c3cc(-c4cnc5ccccc5c4)ccc3ncc21 [Dactolisib] + CC(=O)c1c(C)c2cnc(Nc3ccc(N4CCNCC4)cn3)nc2n(C2CCCC2)c1=O [Palbociclib] (partner 0.5 µM)
How it was run: (§1)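 Five library-drug doses in √10 steps were combined with a fixed anchor-drug dose, or a single drug was given alone, by pin tool to lung cancer cell lines in 1536-well plates the day after seeding. Nuclei were stained and counted after 5 days. Relative viability is the nuclei count in treated wells over that in vehicle wells, taken as the median of duplicate plates.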

Dactolisib + Dasatinib = compound: Cn1c(=O)n(-c2ccc(C(C)(C)C#N)cc2)c2c3cc(-c4cnc5ccccc5c4)ccc3ncc21 [Dactolisib] + Cc1nc(Nc2ncc(C(=O)Nc3c(C)cccc3Cl)s2)cc(N2CCN(CCO)CC2)n1 [Dasatinib] (partner 0.075 µM)
How it was run: as §1

AZ505 + Bortezomib = compound: C1CCC(CC1)N(CCNCCC2=C3C(=C(C=C2)O)NC(=O)CO3)C(=O)CCNCCC4=CC(=C(C=C4)Cl)Cl [AZ505] + CC(C)C[C@H](NC(=O)[C@H](Cc1ccccc1)NC(=O)c1cnccn1)B(O)O [Bortezomib] (partner 0.002 µM)
How it was run: as §1

AZ505 + Linsitinib = compound: C1CCC(CC1)N(CCNCCC2=C3C(=C(C=C2)O)NC(=O)CO3)C(=O)CCNCCC4=CC(=C(C=C4)Cl)Cl [AZ505] + C[C@]1(O)C[C@@H](c2nc(-c3ccc4ccc(-c5ccccc5)nc4c3)c3c(N)nccn32)C1 [Linsitinib] (partner 1 µM)
How it was run: as §1

Row | Cell Line | relative viability (Dactolisib + Palbociclib; first compound 0.002 µM) | relative viability (Dactolisib + Palbociclib; first compound 0.006325 µM) | relative viability (Dactolisib + Palbociclib; first compound 0.02 µM) | relative viability (Dactolisib + Palbociclib; first compound 0.06325 µM) | relative viability (Dactolisib + Palbociclib; first compound 0.2 µM) | relative viability (Dactolisib + Dasatinib; first compound 0.002 µM) | relative viability (Dactolisib + Dasatinib; first compound 0.006325 µM) | relative viability (Dactolisib + Dasatinib; first compound 0.02 µM) | relative viability (Dactolisib + Dasatinib; first compound 0.06325 µM) | relative viability (Dactolisib + Dasatinib; first compound 0.2 µM) | relative viability (AZ505 + Bortezomib; first compound 0.08 µM) | relative viability (AZ505 + Bortezomib; first compound 0.253 µM) | relative viability (AZ505 + Bortezomib; first compound 0.8 µM) | relative viability (AZ505 + Bortezomib; first compound 2.53 µM) | relative viability (AZ505 + Bortezomib; first compound 8 µM) | relative viability (AZ505 + Linsitinib; first compound 0.08 µM) | relative viability (AZ505 + Linsitinib; first compound 0.253 µM) | relative viability (AZ505 + Linsitinib; first compound 0.8 µM) | relative viability (AZ505 + Linsitinib; first compound 2.53 µM) | relative viability (AZ505 + Linsitinib; first compound 8 µM)
1 | ChaGo-K-1 | 0.93 | 0.958 | 0.88 | 0.84 | 0.85 | 0.584 | 0.56 | 0.597 | 0.523 | 0.556 | 0.945 | 0.91 | 1.04 | 1 | 1.13 |  |  |  |  | 
2 | EBC-1 |  |  |  |  |  |  |  |  |  |  | 0.479 | 0.519 | 0.452 | 0.533 | 0.515 | 0.87 | 0.833 | 1.01 | 0.841 | 0.896
3 | EKVX | 0.431 | 0.386 | 0.324 | 0.241 | 0.197 | 0.523 | 0.578 | 0.382 | 0.269 | 0.204 | 0.992 | 0.906 | 0.986 | 1.09 | 0.992 | 0.963 | 1.15 | 0.951 | 1.04 | 1.06
4 | EMC-BAC-2 | 0.563 | 0.486 | 0.461 | 0.324 | 0.29 | 0.337 | 0.325 | 0.342 | 0.209 | 0.18 | 0.988 | 1.03 | 0.972 | 1.01 | 1.1 | 0.767 | 0.834 | 0.813 | 0.822 | 0.879
5 | EPLC-272H | 0.331 | 0.299 | 0.341 | 0.317 | 0.287 | 0.359 | 0.254 | 0.318 | 0.207 | 0.233 | 0.769 | 1.04 | 0.85 | 0.721 | 0.904 | 0.922 | 1.14 | 1.04 | 1.34 | 1.33
6 | H3255 | 0.332 | 0.305 | 0.321 | 0.313 | 0.314 | 0.489 | 0.387 | 0.357 | 0.397 | 0.28 | 0.558 | 0.812 | 0.817 | 0.804 | 0.758 | 0.836 | 1 | 0.918 | 0.983 | 0.929
7 | HARA | 0.304 | 0.233 | 0.301 | 0.233 | 0.188 | 0.273 | 0.25 | 0.213 | 0.292 | 0.127 | 1.04 | 1.01 | 0.914 | 1.03 | 0.916 | 0.897 | 0.894 | 0.695 | 0.737 | 0.773
8 | HCC-15 | 0.778 | 0.723 | 0.715 | 0.471 | 0.28 | 0.609 | 0.559 | 0.499 | 0.319 | 0.229 | 0.973 | 1.08 | 1.01 | 0.989 | 1.02 | 0.877 | 0.909 | 0.842 | 0.837 | 0.919
9 | HCC-44 | 1.04 | 1.02 | 1.01 | 0.99 | 0.919 |  |  |  |  |  | 0.865 | 0.883 | 0.879 | 0.915 | 0.86 | 0.671 | 0.691 | 0.619 | 0.654 | 0.663
